Measured values as given in patent publication US6586438B2, “Antidiabetic formulation and method” (Bristol-Myers Squibb Co., priority 1999, dated 2003).

Columns and labels:
Type in all cases: in vivo, human
[1] = tested on: drug naive patients with type 2 diabetes mellitus; assay: Double-blind first line therapy clinical study: hemoglobin A1c (HbA1c); settings: for frequency of subjects achieving glycemic target of HbA1c<7%: following 20 weeks of double-blind therapy; for glycemic response for baseline HbA1c levels >9%: initial therapy
Experimental: The dosage strengths of fixed combination product evaluated included metformin 250 mg with glyburide 1.25 mg, and metformin 500 mg with glyburide 2.5 mg. Glycemic control was assessed using Hemoglobin A1c (HbA1c), the gold-standard measure of long-term glycemic control. Mean change from baseline in HbA1c following a 20 week treatment period (4 weeks stable once daily dose, 4 week titration and 12 weeks stable dose) were compared. The treatment phase continued for an additional 12 weeks to assess durability of efficacy. This study was a 34 week, multicenter, randomized, placebo-controlled, double-blind, parallel study with an optional long-term, open-label treatment phase. The primary outcome variable for efficacy was the change from baseline in HbA1c of the two combination therapies relative to placebo following 20 weeks of randomized treatment. 2. […] Therapeutic plasma glucose response will be defined as a FPG<126 mg/dL (based on current ADA guidelines for FPG). […] Patients were drug naive or had no oral antihyperglycemic therapy for the 2 months prior to screening. […] However, recruitment continued for up to 6 months to recruit up to a maximum of 150 patients per arm to provide additional safety information. The design included 3 periods as follows: Period B began the randomized, double-blind, parallel quadruple dummy treatment phase. Eligible patients were randomized to 1 of 5 study arms which included placebo, glyburide monotherapy, metformin monotherapy, and two different dose strengths of fixed combination metformin/glyburide product (Examples 1 and 2). Subjects were maintained on once daily dosing for a 4 week period so that the contribution of the individual components of the combination product can be assessed by short term glycemic parameters. Period C was the continuation of the randomized, double-blind treatment phase. Subjects were titrated for glycemic control over the first four weeks then dose was maintained for a 24 week stable dose treatment segment. Analysis for the primary outcome, the change from baseline in HbA1c of the two combination therapies (Examples 1 and 2) relative to placebo, was assessed at week 16 of Period C which was after 20 weeks of randomized, double-blind treatment. This was done at this time as there had been adequate time for stabilization of HbA1c and for safety reasons as it was anticipated that a high number of placebo treated patients may have had to discontinue randomized study medication due to insufficient glycemic control as treatment duration was extended. […] The study remained blinded and those subjects who discontinued randomized study drug due to lack of efficacy were eligible to begin the long-term, open-label treatment phase with fixed combination product. Following completion of the single-blind lead-in phase (Period A), qualifying subjects commenced therapy in the randomized, double-blind treatment phase (Period B). […] Following completion of the 4 week stable once daily dose phase (Period B) subjects continued the same randomized therapy in the 28 week titration/stable dose treatment phase (Period C). Study medication was titrated at visits Cl, C15 and C29. Medication was dosed with the first morning meal and with the evening meal. […] After the 4 week titration segment in Period C, subjects continued on a stable dose of study medication for the remainder of Period C.

[2] = tested on: drug naive patients with type 2 diabetes mellitus; assay: Double-blind first line therapy clinical study: post-prandial glucose (PPG) and PPG excursion; settings: for 2-hour postprandial glucose excursion from a fasting baseline: placebo 40.3 mg/dL; for decrease in post-prandial glucose excursion: week 20
Experimental: The term “post-prandial excursion” as employed herein refers to the difference between post-prandial glucose (PPG) and fasting plasma glucose (FPG). […] The dosage strengths of fixed combination product evaluated included metformin 250 mg with glyburide 1.25 mg, and metformin 500 mg with glyburide 2.5 mg. Glycemic control was assessed using Hemoglobin A1c (HbA1c), the gold-standard measure of long-term glycemic control. Mean change from baseline in HbA1c following a 20 week treatment period (4 weeks stable once daily dose, 4 week titration and 12 weeks stable dose) were compared. The treatment phase continued for an additional 12 weeks to assess durability of efficacy. This study was a 34 week, multicenter, randomized, placebo-controlled, double-blind, parallel study with an optional long-term, open-label treatment phase. […] 3. […] Patients were drug naive or had no oral antihyperglycemic therapy for the 2 months prior to screening. […] However, recruitment continued for up to 6 months to recruit up to a maximum of 150 patients per arm to provide additional safety information. The design included 3 periods as follows: Period B began the randomized, double-blind, parallel quadruple dummy treatment phase. Eligible patients were randomized to 1 of 5 study arms which included placebo, glyburide monotherapy, metformin monotherapy, and two different dose strengths of fixed combination metformin/glyburide product (Examples 1 and 2). Subjects were maintained on once daily dosing for a 4 week period so that the contribution of the individual components of the combination product can be assessed by short term glycemic parameters. Period C was the continuation of the randomized, double-blind treatment phase. Subjects were titrated for glycemic control over the first four weeks then dose was maintained for a 24 week stable dose treatment segment. Analysis for the primary outcome, the change from baseline in HbA1c of the two combination therapies (Examples 1 and 2) relative to placebo, was assessed at week 16 of Period C which was after 20 weeks of randomized, double-blind treatment. This was done at this time as there had been adequate time for stabilization of HbA1c and for safety reasons as it was anticipated that a high number of placebo treated patients may have had to discontinue randomized study medication due to insufficient glycemic control as treatment duration was extended. […] The study remained blinded and those subjects who discontinued randomized study drug due to lack of efficacy were eligible to begin the long-term, open-label treatment phase with fixed combination product. Following completion of the single-blind lead-in phase (Period A), qualifying subjects commenced therapy in the randomized, double-blind treatment phase (Period B). […] Following completion of the 4 week stable once daily dose phase (Period B) subjects continued the same randomized therapy in the 28 week titration/stable dose treatment phase (Period C). Study medication was titrated at visits Cl, C15 and C29. Medication was dosed with the first morning meal and with the evening meal. […] After the 4 week titration segment in Period C, subjects continued on a stable dose of study medication for the remainder of Period C.

[3] = tested on: drug naive patients with type 2 diabetes mellitus; assay: Double-blind first line therapy clinical study: body weight and plasma lipid profile; settings: as glycemic control improved
Excerpt: This study was a 34 week, multicenter, randomized, placebo-controlled, double-blind, parallel study with an optional long-term, open-label treatment phase. […] Patients were drug naive or had no oral antihyperglycemic therapy for the 2 months prior to screening. […] However, recruitment continued for up to 6 months to recruit up to a maximum of 150 patients per arm to provide additional safety information. The design included 3 periods as follows: Period B began the randomized, double-blind, parallel quadruple dummy treatment phase. Eligible patients were randomized to 1 of 5 study arms which included placebo, glyburide monotherapy, metformin monotherapy, and two different dose strengths of fixed combination metformin/glyburide product (Examples 1 and 2). Subjects were maintained on once daily dosing for a 4 week period so that the contribution of the individual components of the combination product can be assessed by short term glycemic parameters. Period C was the continuation of the randomized, double-blind treatment phase. […] Analysis for the primary outcome, the change from baseline in HbA1c of the two combination therapies (Examples 1 and 2) relative to placebo, was assessed at week 16 of Period C which was after 20 weeks of randomized, double-blind treatment. […]

[4] = Week 20 of double-blind therapy
[5] = Week 32 of double-blind therapy

Structure (SMILES)	mean HbA1c level [1, 4] [%]	mean HbA1c level [1, 5] [%]	frequency of subjects achieving glycemic target of HbA1c<7% [1] [%]	glycemic response for baseline HbA1c levels >9% [1]	postprandial glucose excursion lowering, comparison in words ([2]; evaluating the excursion rather than the absolute value)	2-hour postprandial glucose excursion from a fasting baseline [2] [mg/dL]	decrease in post-prandial glucose excursion [2]	early weight gain [3] [kg]
CN(C)C(=N)N=C(N)N [metformin]	6.79	6.96	50	plateauing of glycemic response	better postprandial glucose lowering than glyburide and placebo	29.5	15.2	
COc1ccc(Cl)cc1C(=O)NCCc1ccc(S(=O)(=O)NC(=O)NC2CCCCC2)cc1 [glyburide]	6.64	6.78	60	plateauing of glycemic response		38.2	6.8	2
